Biological target: T1, Kir3.1/Kir3.4 (Homo sapiens, UniProt P48544+P48549)
T1 sequence (P48549 whole entry): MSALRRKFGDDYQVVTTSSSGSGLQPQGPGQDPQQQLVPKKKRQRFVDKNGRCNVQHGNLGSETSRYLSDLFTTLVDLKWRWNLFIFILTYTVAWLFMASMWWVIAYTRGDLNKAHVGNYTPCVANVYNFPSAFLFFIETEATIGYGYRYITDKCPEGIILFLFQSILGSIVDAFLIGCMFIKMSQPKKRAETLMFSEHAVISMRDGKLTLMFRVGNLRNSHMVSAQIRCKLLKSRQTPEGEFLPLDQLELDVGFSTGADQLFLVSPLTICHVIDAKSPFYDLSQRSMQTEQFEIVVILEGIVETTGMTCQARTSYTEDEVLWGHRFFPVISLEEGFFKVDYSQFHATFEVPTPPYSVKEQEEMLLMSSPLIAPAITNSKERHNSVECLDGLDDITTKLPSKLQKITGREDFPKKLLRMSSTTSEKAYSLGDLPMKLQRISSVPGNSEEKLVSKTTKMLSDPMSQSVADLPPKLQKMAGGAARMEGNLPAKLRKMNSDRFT
T1 sequence (P48544 whole entry): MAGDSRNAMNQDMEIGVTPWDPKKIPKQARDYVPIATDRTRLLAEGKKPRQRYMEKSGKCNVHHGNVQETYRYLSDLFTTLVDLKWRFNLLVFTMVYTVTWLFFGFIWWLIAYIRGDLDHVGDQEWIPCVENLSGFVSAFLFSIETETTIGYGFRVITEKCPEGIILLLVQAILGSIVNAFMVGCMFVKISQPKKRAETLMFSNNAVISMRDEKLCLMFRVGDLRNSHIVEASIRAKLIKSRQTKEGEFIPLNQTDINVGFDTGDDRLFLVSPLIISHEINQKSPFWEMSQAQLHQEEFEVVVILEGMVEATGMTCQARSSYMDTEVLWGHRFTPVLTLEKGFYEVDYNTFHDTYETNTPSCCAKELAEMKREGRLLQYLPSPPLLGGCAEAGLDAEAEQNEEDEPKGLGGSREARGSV
Assay: IonWorks Quattro system: Quattro is controlled using IonWorks v2 software to perform the following steps:a. Add 3.5 ul cells plus 3.5 ul external buffer to wells of Quattro Patch Plateb. Circulate amphotericin B and internal buffer onto cellsc. Apply the following voltage protocol: Pulse 1: 15 mV for 300 milliseconds (ms), followed by Pulse 2: −120 mV for 400 ms, then Pulse 3: −15 mV for 400 ms, and finally Pulse 4: −120 mV to 40 mV over 500 ms (this is a voltage ramp).d. Measure magnitude of inward potassium current at time point between 1200-1220 ms from start of Pulse 1 (i.e. during the voltage ramp phase).e. Add 3.5 ul of diluted compounds (or DMSO) to wells and repeat steps c-d (final compound concentrations are 50 uM to 0.1 uM, for potent compounds 0.5 uM to 0.01 uM and each concentration is tested in quadruplicate—i.e. in 4 separate wells).f. The difference between current magnitude pre vs. post-compound gives a measure of GIRK1/4 inhibition.7. Data analysis:IC50 values are calculated by plotting the percentage of current inhibition (normalized to the DMSO-only control) as a function of compound concentration using standard data analysis software.

IC50 [nM]	SMILES
99	CS(=O)(=O)NCCOc1ncc(Cl)c2c1c(=O)cc(CO)n2-c1c(Cl)cccc1Cl
351	O=c1cc(CO)n(-c2c(Cl)cccc2Cl)c2c(Cl)cnc(OCC(CO)CO)c12

— ChEMBL document CHEMBL5729489, “Naphthyridinone derivatives and their use in the treatment of arrhythmia” (2022)
